Source: PubChem BioAssay AID248 (DTP/NCI, 2004)
Toxic doses and inconclusive results are not listed. Cut-off read from the data, not from the text of the source: active = T/C of 150% or more; inactive = T/C below 125%.

System: L1210 leukemia ip in BDF1 mice, survival T/C
Assay: NCI In Vivo Anticancer Drug Screen. Data for tumor model L1210 Leukemia (intraperitoneal) in B6D2F1 (BDF1) mice
Details: endpoint: mean survival time, higher = longer survival
Method in brief: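 Survival endpoint. Drug-treated group vs vehicle group, expressed as T divided by C. Tumor passaged by transplantation.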

[1] = dose: 100.0 mg/kg/injection, schedule: Q01DX001 (ip), vehicle: saline
[2] = dose: 200.0 mg/kg/injection, schedule: Q01DX001 (ip), vehicle: saline
[3] = dose: 400.0 mg/kg/injection, schedule: Q01DX001 (ip), vehicle: saline

Measured: T/C

NC(=Nc1ccc(Cl)cc1)N/N=C/c1ccc(Cl)cc1
inactive: dose: 5.0 mg/kg/injection, schedule: Q01DX001 (ip), vehicle: saline 94 % of control | dose: 10.0 mg/kg/injection, schedule: Q01DX001 (ip), vehicle: saline 100 % of control | dose: 20.0 mg/kg/injection, schedule: Q01DX001 (ip), vehicle: saline 94 % of control | dose: 40.0 mg/kg/injection, schedule: Q01DX001 (ip), vehicle: saline 91 % of control | dose: 80.0 mg/kg/injection, schedule: Q01DX001 (ip), vehicle: saline 91 % of control | [1] 92 % of control | [2] 89 % of control | [3] 103 % of control

Cc1ccc(S(=O)(=O)NN=C2CCS(=O)CC2)cc1 (configuration not stated)
inactive: dose: 100.0 mg/kg/injection, schedule: Q01DX009 (ip), vehicle: Klucel (hydroxypropylcellulose) (HPC) 90 % of control | dose: 200.0 mg/kg/injection, schedule: Q01DX009 (ip), vehicle: Klucel (hydroxypropylcellulose) (HPC) 97 % of control | dose: 400.0 mg/kg/injection, schedule: Q01DX009 (ip), vehicle: Klucel (hydroxypropylcellulose) (HPC) 94 % of control

CCc1cc(C(C)=O)c(CC)s1
inactive: dose: 100.0 mg/kg/injection, schedule: Q01DX009 (sc), vehicle: olive oil, sesame oil, peanut oil 94 % of control | dose: 100.0 mg/kg/injection, schedule: Q04DX003 (sc), vehicle: olive oil, sesame oil, peanut oil 104 % of control | dose: 200.0 mg/kg/injection, schedule: Q01DX009 (sc), vehicle: olive oil, sesame oil, peanut oil 97 % of control | dose: 200.0 mg/kg/injection, schedule: Q04DX003 (sc), vehicle: olive oil, sesame oil, peanut oil 100 % of control | dose: 400.0 mg/kg/injection, schedule: Q01DX009 (sc), vehicle: olive oil, sesame oil, peanut oil 104 % of control | dose: 400.0 mg/kg/injection, schedule: Q04DX003 (sc), vehicle: olive oil, sesame oil, peanut oil 109 % of control

CC(=O)OCC1OC(NC(=O)NCCCl)C(OC(C)=O)C(OC(C)=O)C1OC(C)=O (configuration not stated)
inactive: dose: 100.0 mg/kg/injection, schedule: Q01DX001 (ip), vehicle: Klucel (hydroxypropylcellulose) (HPC) 101 % of control | dose: 200.0 mg/kg/injection, schedule: Q01DX001 (ip), vehicle: Klucel (hydroxypropylcellulose) (HPC) 104 % of control | dose: 400.0 mg/kg/injection, schedule: Q01DX001 (ip), vehicle: Klucel (hydroxypropylcellulose) (HPC) 104 % of control

CC12CCC3c4ccc(Oc5ccccc5N)cc4CCC3C1CCC2=O (configuration not stated)
inactive: dose: 100.0 mg/kg/injection, schedule: Q01DX001 (sc), vehicle: steriod suspending solution 101 % of control | dose: 200.0 mg/kg/injection, schedule: Q01DX001 (sc), vehicle: steriod suspending solution 95 % of control | dose: 400.0 mg/kg/injection, schedule: Q01DX001 (sc), vehicle: steriod suspending solution 89 % of control

O=C1CSCc2c1ccc1ccccc21
inactive: dose: 100.0 mg/kg/injection, schedule: Q04DX003 (ip), vehicle: saline with Tween-80 106 % of control | dose: 200.0 mg/kg/injection, schedule: Q04DX003 (ip), vehicle: saline with Tween-80 100 % of control | dose: 400.0 mg/kg/injection, schedule: Q04DX003 (ip), vehicle: saline with Tween-80 108 % of control

O=S1CCCO1 (configuration not stated)
inactive: dose: 4.7 mg/kg/injection, schedule: Q01DX009 (ip), vehicle: saline 100 % of control | dose: 9.4 mg/kg/injection, schedule: Q01DX009 (ip), vehicle: saline 96 % of control | dose: 18.8 mg/kg/injection, schedule: Q01DX009 (ip), vehicle: saline 93 % of control | dose: 75.0 mg/kg/injection, schedule: Q01DX001 (ip), vehicle: saline 98 % of control

CCOC(=O)c1ccc(NP(=O)(Nc2ccc(C(=O)OCC)cc2)c2ccc([N+](=O)[O-])cc2)cc1
inactive: dose: 100.0 mg/kg/injection, schedule: Q04DX003 (ip), vehicle: acetone 87 % of control | dose: 200.0 mg/kg/injection, schedule: Q04DX003 (ip), vehicle: acetone 95 % of control | dose: 400.0 mg/kg/injection, schedule: Q04DX003 (ip), vehicle: acetone 95 % of control

CC(C)(C)OC(=O)NCC(=O)NNC(=O)OC(C)(C)C
inactive: dose: 100.0 mg/kg/injection, schedule: Q01DX009 (ip), vehicle: saline 92 % of control | dose: 100.0 mg/kg/injection, schedule: Q04DX003 (ip), vehicle: saline sonified 101 % of control | dose: 200.0 mg/kg/injection, schedule: Q01DX009 (ip), vehicle: saline 89 % of control | dose: 200.0 mg/kg/injection, schedule: Q04DX003 (ip), vehicle: saline sonified 97 % of control | dose: 400.0 mg/kg/injection, schedule: Q01DX009 (ip), vehicle: saline 92 % of control | dose: 400.0 mg/kg/injection, schedule: Q04DX003 (ip), vehicle: saline sonified 95 % of control

Brc1c(Br)c(Br)c(Br)c(Br)c1Br
inactive: [1] 93 % of control | [2] 92 % of control | [3] 98 % of control
